Experimental data from patent US9802899B2, “Heterocyclic compounds as pesticides” (BAYER CROPSCIENCE AG, priority 2012, dated 2017).

Test: Determination of the log P values by HPLC (formic acid method)
Format: physicochemical
Conditions: reversed-phase HPLC column (C 18), reversed-phase column (C 18), acidic range (pH 3.4), 55° C.
Method: 1) Description of Method for Determination of the Log P Values (Formic Acid Method)
Eluents for determination in the acidic range (pH 3.4):
Eluent A: acetonitrile+1 ml of formic acid/liter. Eluent B: water+0.9 ml of formic acid/liter.
The lambda max values were determined in the maxima of the chromatographic signals using the UV spectra from 200 nm to 400 nm.

chromatographic logP | SMILES
2.65 | N#Cc1cc(F)cc(F)c1-n1ccc(NC(=O)c2ccccc2C(F)(F)F)n1 [Compound I-1-393, N-[1-(2-Cyano-4,6-difluorophenyl)-1H-pyrazol-3-yl]-2-(trifluoromethyl)benzamide]
3.49 | Cc1cc(C(F)(F)F)c(C#N)c(-n2ccc(NC(=O)c3ccccc3C(F)(F)F)n2)n1 [Compound I-1-571, N-{1-[3-Cyano-6-methyl-4-(trifluoromethyl)pyridin-2-yl]-1H-pyrazol-3-yl}-2-(trifluoromethyl)benzamide]
0.59 | N#Cc1cncnc1-n1ccc(N)n1 [4-(3-Amino-1H-pyrazol-1-yl)pyrimidine-5-carbonitrile]
3.54 | O=C(Nc1nn(-c2ccccc2Cl)c2ccccc12)c1ccccc1C(F)(F)F [Compound I-5-8, N-[1-(2-Chlorophenyl)-1H-indazol-3-yl]-2-(trifluoromethyl)benzamide]
2.04 | CCOc1c(F)cccc1-n1ccc(N)n1 [1-(2-ethoxy-3-fluorophenyl)-1H-pyrazole-3-amine]

Same assay, conditions: reversed-phase column (C 18), acidic range (pH 3.4), 55° C.

log P | SMILES
2.14 | O=C(Nc1ccn(-c2c(F)cccc2F)n1)c1ncncc1Cl [Compound I-1-330]
3.63 | Cc1cc(NC(=O)c2ccccc2Br)nn1-c1ccc(F)cc1F [Compound I-1-208]
2.88 | Cc1nc(C(F)(F)F)c(C(=O)Nc2ccn(-c3ccccc3Cl)n2)s1 [Compound I-1-371]
2.69 | CCc1ccccc1C(=O)Nc1ccn(-c2ncc(F)cc2F)n1 [Compound I-1-488]
2.74 | O=C(Nc1ccn(-c2ccccc2Cl)n1)c1nccnc1C(F)(F)F [Compound I-1-44]
2.13 | CS(=O)(=O)c1ccccc1-n1ccc(NC(=O)c2ccccc2C(F)(F)F)n1 [Compound I-1-179]
2.38 | Cc1nc(-n2ccc(NC(=O)c3cccnc3C(F)(F)F)n2)c(F)cc1F [Compound I-1-440]
2.09 | Cc1cc(NC(=O)c2cnccc2C(F)(F)F)nn1-c1ccccc1Cl [Compound I-1-380]
2.96 | CN(C(=O)c1ccccc1C(F)(F)F)c1ccn(-c2ncc(F)cc2F)n1 [Compound I-1-467]
2.15 | Cc1nnsc1C(=O)Nc1ccn(-c2c(F)cccc2F)n1 [Compound I-1-326]
2.37 | COc1ccccc1-n1ccc(NC(=O)c2cccnc2C(F)(F)F)n1 [Compound I-1-407]
2.33 | Cc1nn(-c2ncccc2Cl)nc1NC(=O)c1ccccc1C(F)(F)F [Compound I-2-53]
1.94 | Nc1cc(NC(=O)c2ccccc2Br)nn1-c1ccccc1Cl [Compound I-1-355]
2.71 | Cc1nc(-n2ccc(NC(=O)c3ccccc3Br)n2)c(F)cc1F [Compound I-1-442]
3.58 | CCC(C)n1ncc(Cl)c1C(=O)Nc1ccn(-c2c(F)cccc2F)n1 (stereo not shown) [Compound I-1-244]
2.38 | CSc1ncccc1C(=O)Nc1ccn(-c2c(F)cccc2F)n1 [Compound I-1-249]
2.96 | O=C(Nc1ccn(-c2c(F)cccc2F)n1)c1sccc1I [Compound I-1-104]
2.43 | O=C(Nc1cnn(-c2ncc(F)cc2F)n1)c1ccccc1C(F)(F)F [Compound I-2-66]
3.09 | CCCc1c(Cl)c(C(=O)Nc2ccn(-c3ncc(F)cc3F)n2)nn1C [Compound I-1-532]
0.70 | Cn1cncc1C(=O)Nc1ccn(-c2ncc(F)cc2F)n1 [Compound I-1-646]
2.45 | O=C(Nc1ccn(-c2ccccc2Cl)n1)c1nccnc1Cl [Compound I-1-363]
2.23 | Cn1ncc(Cl)c1C(=O)Nc1ccn(-c2ncc(F)cc2F)n1 [Compound I-1-529]
2.41 | Cn1cccc1C(=O)Nc1ccn(-c2c(F)cccc2F)n1 [Compound I-1-645]
2.34 | O=C(Nc1ccn(-c2ncccc2Br)n1)c1cccnc1C(F)(F)F [Compound I-1-550]
3.85 | CC(C)(C)c1ccccc1C(=O)Nc1ccn(-c2ccccc2Cl)n1 [Compound I-1-373]

log P | SMILES
3.04 | O=C(Nc1cnn(-c2ncc(Cl)cc2Cl)n1)c1ccccc1I [Compound I-2-65]
2.60 | O=C(Nc1ccn(-c2c(F)cccc2F)n1)c1ccccc1F [Compound I-1-278]
2.90 | O=C(Nc1cnn(-c2c(F)cccc2F)n1)c1ccsc1I [Compound I-2-40]
2.50 | Cn1nc([N+](=O)[O-])c(Cl)c1C(=O)Nc1ccn(-c2ncc(F)cc2F)n1 [Compound I-1-530]
2.50 | Cn1ncc(Br)c1C(=O)Nc1ccn(-c2c(F)cccc2F)n1 [Compound I-1-302]
3.47 | CCC(C)n1ncc(I)c1C(=O)Nc1ccn(-c2c(F)cccc2F)n1 (stereo not shown) [Compound I-1-245]
3.00 | Cn1nc(C(F)(F)F)c(C(=O)Nc2ccn(-c3ccccc3Br)n2)c1F [Compound I-1-59]
2.74 | O=C(Nc1ccn(-c2c(F)cccc2F)n1)c1ccccc1OC(F)F [Compound I-1-247]
2.58 | Cc1nc(C(F)(F)F)c(C(=O)Nc2ccn(-c3c(F)cccc3F)n2)s1 [Compound I-1-114]
2.61 | O=C(Nc1ccn(-c2c(F)cccc2F)n1)c1cscc1Br [Compound I-1-305]
2.61 | CCn1ncc(Br)c1C(=O)Nc1ccn(-c2ncc(F)cc2F)n1 [Compound I-1-518]
2.93 | O=C(c1cccnc1C(F)(F)F)N(C(=O)c1cccnc1C(F)(F)F)c1ccn(-c2ncccc2F)n1 [Compound I-1-134]
2.64 | O=C(Nc1ccn(-c2nc(F)c(F)cc2F)n1)c1ccccc1Cl [Compound I-1-163]
2.31 | O=C(Nc1ccn(-c2ncc(F)cc2F)n1)c1ccccc1F [Compound I-1-493]
2.87 | COc1ccccc1-n1ccc(NC(=O)c2cc(C)oc2C)n1 [Compound I-1-3]
2.51 | O=C(Nc1cnn(-c2ncc(F)cc2F)n1)c1c(F)cccc1C(F)(F)F [Compound I-2-71]
2.09 | O=C(Nc1cnn(-c2ncccc2Cl)n1)c1c(F)cccc1F [Compound I-2-15]
1.47 | CCc1ncccc1C(=O)Nc1ccn(-c2c(F)cccc2F)n1 [Compound I-1-275]
3.14 | O=C(Nc1ccn(-c2cc(F)ccc2F)n1)c1occc1I [Compound I-1-222]
2.45 | Cc1cc(NC(=O)c2ccccc2Cl)nn1-c1ccccc1Cl [Compound I-1-31]
2.98 | O=C(Nc1ccn(-c2ncc(F)cc2F)n1)c1ccccc1SC(F)(F)F [Compound I-1-149]
2.63 | Cn1nc(C(F)F)c(C(=O)Nc2ccn(-c3ccccc3Br)n2)c1F [Compound I-1-58]
3.43 | O=C(Nc1ccn(-c2ncc(C(F)(F)F)cc2Cl)n1)c1ccccc1I [Compound I-1-421]
1.91 | O=C(Nc1ccn(-c2ncc(F)cn2)n1)c1ccccc1Cl [Compound I-1-604]
2.16 | Cc1nn(C)c(C)c1C(=O)Nc1ccn(-c2ccccc2C(F)(F)F)n1 [Compound I-1-185]

log P | SMILES
2.15 | Cn1cc(Br)c(C(=O)Nc2ccn(-c3ncc(F)cc3F)n2)n1 [Compound I-1-520]
3.24 | Cc1ccsc1C(=O)Nc1ccn(-c2cc(F)ccc2F)n1 [Compound I-1-71]
2.67 | O=C(Nc1ccn(-c2cnc(Cl)cn2)n1)c1c(F)cccc1F [Compound I-1-387]
2.95 | O=C(Nc1ccn(-c2ccc(F)cc2F)n1)c1ccccc1Br [Compound I-1-209]
2.61 | O=C(Nc1ccn(-c2ccccc2[N+](=O)[O-])n1)c1ccccc1I [Compound I-1-419]
3.37 | CCC(C)n1ncc(Cl)c1C(=O)Nc1ccn(-c2ncc(F)cc2F)n1 (stereo not shown) [Compound I-1-455]
2.23 | Cc1nn(C)c(C(=O)Nc2ccn(-c3c(F)cccc3F)n2)c1[N+](=O)[O-] [Compound I-1-233]
2.22 | O=C(Nc1ccn(-c2ccccc2Cl)n1)c1cccnc1Br [Compound I-1-358]
2.84 | O=C(Nc1ccn(-c2cnc(Cl)cn2)n1)c1ccccc1Br [Compound I-1-388]
2.68 | O=C(Nc1ccn(-c2c(F)cccc2F)n1)c1cccnc1C(F)(F)F [Compound I-1-93]
2.12 | O=C(Nc1ccn(-c2ncccc2Cl)n1)c1c(F)cccc1F [Compound I-1-564]
2.17 | CS(=O)(=O)c1ccccc1C(=O)Nc1ccn(-c2ccccc2Cl)n1 [Compound I-1-341]
3.24 | CCc1nn(C)c(C(=O)Nc2ccn(-c3c(F)cccc3F)n2)c1Cl [Compound I-1-316]
4.15 | CCc1cc(NC(=O)c2ccccc2C(F)(F)F)nn1-c1ccc(F)cc1F [Compound I-1-201]
4.15 | Cn1nc(C(C)(C)C)c(Cl)c1C(=O)Nc1ccn(-c2c(F)cccc2F)n1 [Compound I-1-293]
3.15 | CCn1nc(C)c(Br)c1C(=O)Nc1ccn(-c2c(F)cccc2F)n1 [Compound I-1-300]
3.23 | CCN(C(=O)c1ccccc1C(F)(F)F)c1ccn(-c2ncc(F)cc2F)n1 [Compound I-1-468]
1.76 | O=C(Nc1cnn(-c2ncccc2F)n1)c1cccnc1C(F)(F)F [Compound I-2-45]
2.96 | Cc1ccsc1C(=O)Nc1ccn(-c2ccccc2Cl)n1 [Compound I-1-46]
3.05 | C#CCN(C(=O)c1ccccc1C(F)(F)F)c1ccn(-c2ncc(F)cc2F)n1 [Compound I-1-470]
2.03 | Cn1cc(C(=O)Nc2ccn(-c3c(F)cccc3F)n2)c(I)n1 [Compound I-1-108]
2.86 | O=C(Nc1nn(-c2c(F)cccc2F)cc1I)c1ccccc1C(F)(F)F [Compound I-1-257]
2.18 | O=C(Nc1cnn(-c2ncccc2F)n1)c1ccccc1C(F)(F)F [Compound I-2-44]
3.09 | O=C(Nc1nn(-c2ccccc2Br)nc1Cl)c1ccccc1Cl [Compound I-2-29]
